{"source": "patent US12201629B2", "about": "(priority 2017, dated 2025)", "assay": "Example 2: pharmacokinetics of oral and intravenous buprenorphine hydrochloride under naltrexone blockade", "conditions": "injection, equimolar to 0.3 mg buprenorphine base, over 15 min; n = 8"}
{"smiles": "CO[C@@]12CC[C@@]3(C[C@@H]1[C@](C)(O)C(C)(C)C)[C@H]1Cc4ccc(O)c5c4[C@@]3(CCN1CC1CC1)[C@H]2O5.Cl", "note": "[Buprenorphine i.v., Buprenorphine HCl]", "values": [{"measurement": "Buprenorphine Mean Cmax", "value": 4.26, "unit": "ng/mL"}, {"measurement": "Buprenorphine Mean Tmax", "value": 20.2, "unit": "min"}]}
